# Data: patent US4957730A, “Antimycotic nail varnish” (Hoechst Aktiengesellschaft, priority 1985, dated 1990)
# Experiments:
# [1] = system: Trichophyton mentagrophytes 109 (100/25); experiment: in vitro series dilution test (MIC); type: cell-based; conditions: T. mentagrophytes
# Description: (§1) The results of these experiments are shown in Table 1 in comparison with the efficacy of the pyridone compounds against the highly virulent skin fungus Trichophyton mentagrophytes 109 (100/25) in the in vitro series dilution test and in the guinea pig trichophytosis model.
# *Minimum inhibitory concentration (MIC) in the series dilution test
# [2] = system: Trichophyton mentagrophytes 109 (100/25); experiment: guinea pig trichophytosis model, inhibition on the skin surface; set-up: concentration or dose not given beside the values; conditions: in vivo
# Description: as §1
# **Percentage inhibition on the skin surface in the guinea pig
# Trichophytosis model (W. Dittmar, Mykosen 18 (8), 351-361 (1975)
# T. mentagrophytes = experiment: penetration test on excised pig skin: growth inhibition in the lowest region of the horny layer
# Description: The test method for penetration capacity on excised skin from pigs enables the capacity to penetrate of an effective concentration of compounds horny tissue to be tested.
# (§2) In the tests for the penetration capacity, the surface of shaved pieces of skin was first treated with 0.3% strength solutions of the compounds 1-8 and likewise with three similar compounds not claimed, in each case dissolved in a mixture of 1 ml of dimethyl sulfoxide and 9 ml of isopropanol, at room temperature and was washed again after 2 hours. The lowest region of the horny layer was then exposed by removing the superficial layers by peeling off with adhesive strips ten times in succession. The deep-lying horny layer now exposed was inoculated with virulent pathogens of nail mycoses (dermatophytes). Conclusions as to the level of the penetration capacity were drawn on the basis of the degree of growth inhibition found.
# as §1
# ***Horny layer penetration: percentage growth inhibition by the substance
# which has penetrated into the lowest part of the horny layer.
# (§3) *Time between application of the product and stripping of the skin
# [3] = system: Trichophyton mentagrophytes; experiment: penetration test on horny human skin with nail varnishes: growth inhibition in the deep horny layer; conditions: for growth inhibition of Trichophyton mentagrophytes in the deep lying horny layer of human skin: in words, 1 or 2 hours
# Description: as §2
# In further experiments, the substantially thicker horny human skin was treated by the test method described above at room temperature for 1 or 2 hours with 3% strength nail varnishes of compounds 9 and 10 and likewise with a similar compound 4, which is not claimed, in comparison with the abovementioned nail varnish containing sulbentine. The varnish base of examples 9 and 10 and of comparison 4 and 5 was prepared by mixing the following constituents:
# 2-Hydroxy-4-methoxybenzophenone: 0.1%
# Sodium dioctyl sulfosuccinate: 1.0%
# 50% strength solution of a copolymer of methyl vinyl ether and monobutyl maleate in isopropyl alcohol: 30.0%
# as §3
# [4] = Table 1, pig skin, 0.3% strength solutions, washed after 2 hours, lowest part of horny layer
# [5] = humans, 3% strength varnishes, action time 60 min
# [6] = humans, 3% strength varnishes, action time 120 min
MIC [1] [µg/mL],Structure (SMILES),Inhibition (%) on skin [2],Inhibition (%) in the horny layer (T. mentagrophytes; [4]),also measured
1.95,"Cc1cc(C(C)C)n(O)c(=O)c1 [Comparison 1, reference compound]","75,0%","35,7%",–
3.9,"CCCCCCCCCCCc1cc(C)cc(=O)n1O [Comparison 2, reference compound]","100,0%","9,8%","Inhibition (%) in the deep horny layer (T. mentagrophytes; 2 h): 9,8%; Inhibition (%) in the deep horny layer [3, 5]: 51,4%; Inhibition (%) in the deep horny layer [3, 6]: 49,4%; growth inhibition of Trichophyton mentagrophytes in the deep lying horny layer of human skin ([3]; 3% strength varnishes): only an inadequate inhibiting effect"
3.9,"Cc1cc(CCCCc2ccccc2)n(O)c(=O)c1 [Comparison 3, reference compound]","88,0%","24,2%",–
1.95,CCCCCCCc1cc(C)cc(=O)n1O [Example 1],"89,4%","97,0%",–
1.95,CCCCC(CC)c1cc(C)cc(=O)n1O (stereo not drawn) [Example 2],"85,6%",–,"Inhibition (%) in the horny layer (T. mentagrophytes; 2 h): 85,8%"
1.95,Cc1cc(CC(C)CC(C)(C)C)n(O)c(=O)c1 (stereo not drawn) [Example 3],"91,9%","99,6%",–
1.95,Cc1cc(C2CCCCC2)n(O)c(=O)c1 [Example 4],"88,0%","98,0%",–
1.95,Cc1cc(CCC2CCCCC2)n(O)c(=O)c1 [Example 5],"88,0%","81,2%",–
1.95,Cc1cc(C2CC3CCC2C3)n(O)c(=O)c1 (stereo not drawn) [Example 6],"88,0%","79,9%",–
1.95,Cc1ccc(Cc2cc(C)c(C)c(=O)n2O)c(C)c1 [Example 7],"88,8%","80,0%",–
1.95,Cc1cc(CCc2ccccc2)n(O)c(=O)c1 [Example 8],"88,0%","81,9%",–
–,Cc1cc(CC(C)CC(C)(C)C)n(O)c(=O)c1 (stereo not drawn) [Example 9],–,–,"Inhibition (%) in the deep horny layer (T. mentagrophytes; 2 h): 99,6%; Inhibition (%) in the deep horny layer ([3]; 1 h): 99,0%; Inhibition (%) in the deep horny layer ([3]; 2 h): 99,9%; growth inhibition of Trichophyton mentagrophytes in the deep lying horny layer of human skin ([3]; 3% strength varnishes): almost completely or completely inhibit the growth"
–,Cc1cc(C2CCCCC2)n(O)c(=O)c1 [Example 10],–,–,"Inhibition (%) in the deep horny layer (T. mentagrophytes; 2 h): 98,0%; Inhibition (%) in the deep horny layer [3, 5]: 100,0%; Inhibition (%) in the deep horny layer [3, 6]: 100,0%; growth inhibition of Trichophyton mentagrophytes in the deep lying horny layer of human skin ([3]; 3% strength varnishes): almost completely or completely inhibit the growth"
